The test relates to CD8+ T cells. Type of test: cell-based, human.

Read-outs that look alike come from different tables or passages of the source. Where only a bound is given, the exact number is not on record here.

Consider ELPQWLSANR, for which the “# SFU” value was <10 SFU/250,000 CD8+ T cells.

Regarding RADEEQQQAL, the “# SFU” value is given as 120 SFU/250,000 CD8+ T cells.

Turning to `CSCC[C@H](NC(=O)[C@@H](N)CCC(=O)O)C(=O)N[C@@H](CCCCN)C(=O)N[C@H](C(=O)N[C@@H](CC(=O)O)C(=O)N[C@@H](C)C(=O)N[C@@H](C)C(=O)N[C@H](C(=O)N[C@@H](CC(C)C)C(=O)O)[C@@H](C)O)[C@@H](C)O`, the “# SFU” value (donor D480 (active TB)) is reported as 387 SFU/250,000 CD8+ T cells.

For `CC[C@H](C)[C@H](NC(=O)[C@H](Cc1c[nH]cn1)NC(=O)[C@H](C)NC(=O)[C@H](CC(=O)O)NC(=O)[C@H](CC(C)C)NC(=O)[C@@H](N)CC(C)C)C(=O)N1CCC[C@H]1C(=O)N[C@@H](CCC(N)=O)C(=O)N[C@@H](CC(C)C)C(=O)O`, the “# SFU” value (donor D504 (LTBI)) is on record as <10 SFU/250,000 CD8+ T cells.

With `CC[C@H](C)[C@H](NC(=O)[C@@H](N)CC(N)=O)C(=O)N[C@@H](CCCNC(=N)N)C(=O)N[C@@H](CCC(N)=O)C(=O)N[C@@H](C)C(=O)NCC(=O)N[C@H](C(=O)N[C@@H](CCC(N)=O)C(=O)N[C@@H](Cc1ccc(O)cc1)C(=O)O)C(C)C`, the “# SFU” value (donor D481 (active TB)) is reported as 1715 SFU/250,000 CD8+ T cells.

For the compound `CC(C)C[C@H](NC(=O)[C@H](Cc1ccc(O)cc1)NC(=O)[C@H](CO)NC(=O)[C@H](CCC(N)=O)NC(=O)[C@H](C)NC(=O)[C@@H](NC(=O)[C@@H]1CCCN1C(=O)[C@H](CO)NC(=O)[C@H](C)N)C(C)C)C(=O)O`, where the note is “donor D432 (active TB)”, the “# SFU” value is given as 210 SFU/250,000 CD8+ T cells.

On to `CC[C@H](C)[C@H](NC(=O)[C@@H](NC(=O)[C@H](C)N)C(C)C)C(=O)N[C@@H](CC(N)=O)C(=O)N[C@H](C(=O)N[C@H](C(=O)N[C@@H](CS)C(=O)N[C@@H](CC(N)=O)C(=O)N[C@@H](Cc1ccc(O)cc1)C(=O)NCC(=O)N[C@@H](CCC(N)=O)C(=O)O)[C@@H](C)O)[C@@H](C)O`, for which the “# SFU” value (donor D454 (LTBI)) was 24 SFU/250,000 CD8+ T cells.

Regarding `CC(C)[C@H](NC(=O)[C@H](C)NC(=O)[C@H](C)NC(=O)[C@H](CCC(N)=O)NC(=O)[C@H](C)NC(=O)[C@H](C)NC(=O)[C@@H](N)[C@@H](C)O)C(=O)N[C@H](C(=O)N[C@@H](CCCNC(=N)N)C(=O)N[C@@H](Cc1ccccc1)C(=O)O)C(C)C`, the “# SFU” value is given as 258 SFU/250,000 CD8+ T cells.

Regarding QTVEDEARRMW, the “#SFU/250,000 CD8+ T-cells” value is 84.

With `CSCC[C@H](NC(=O)[C@H](CCC(=O)O)NC(=O)[C@H](C)N)C(=O)N[C@@H](CCCCN)C(=O)N[C@H](C(=O)N[C@@H](CC(=O)O)C(=O)N[C@@H](C)C(=O)N[C@@H](C)C(=O)N[C@H](C(=O)N[C@@H](CC(C)C)C(=O)N[C@@H](C)C(=O)O)[C@@H](C)O)[C@@H](C)O`, the “# SFU” value is listed as 1993 SFU/250,000 CD8+ T cells.

For `CSCC[C@H](NC(=O)[C@H](CCC(=O)O)NC(=O)[C@H](C)N)C(=O)N[C@@H](CCCCN)C(=O)N[C@H](C(=O)N[C@@H](CC(=O)O)C(=O)N[C@@H](C)C(=O)N[C@@H](C)C(=O)O)[C@@H](C)O`, under “donor D466 (active TB)”, the “# SFU” value is 2458 SFU/250,000 CD8+ T cells.

`CC(C)[C@H](NC(=O)[C@H](Cc1ccccc1)NC(=O)[C@H](CCCNC(=N)N)NC(=O)[C@H](C)NC(=O)[C@H](Cc1c[nH]cn1)NC(=O)[C@H](C)NC(=O)[C@H](C)N)C(=O)N[C@@H](C)C(=O)N[C@@H](C)C(=O)O`: the “# SFU” value (donor D454 (LTBI)) was 88 SFU/250,000 CD8+ T cells.

The values are drawn from patent US9040233B2 (priority 2007, dated 2015).
